Source: US4442044A, “Process for preparing monoesters and diesters of N-alkyl substituted amino methyl phosphonic acid” (priority 1983, dated 1984)

What was measured:
Experiment in all cases: post-emergent herbicidal activity, greenhouse
Assay type in all cases: in vivo
Wheat = settings: Table II
Outline: (§1)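 Seeds or propagules sown in compacted top soil, grown 2–3 weeks in greenhouse, then sprayed with compound solution/suspension containing ~0.4% emulsifier at tabulated rates. Injury scored visually versus untreated controls at ~2 and 4 weeks after treatment, expressed as a herbicidal activity index.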

Barnyardgrass = tested on: Barnyardgrass
Outline: as §1

Velvetleaf = tested on: Velvetleaf
Outline: as §1

Canada Thistle = settings: Table I, 4 WAT
Outline: as §1

Cocklebur = tested on: Cocklebur
Outline: as §1

Quackgrass = settings: Table I, 4 WAT
Outline: as §1

Hemp Sesbania = settings: Table II
Outline: as §1

Sorghum = settings: Table II
Outline: as §1

Yellow Nutsedge = settings: Table I, 4 WAT
Outline: as §1

Soybean = settings: Table II
Outline: as §1

Johnsongrass = settings: Table I, 4 WAT
Outline: as §1

Morningglory = tested on: Morningglory
Outline: as §1

Panicum Spp = settings: Table II
Outline: as §1

Rice = settings: Table II
Outline: as §1

Crabgrass = settings: Table II
Outline: as §1

Downy Brome = tested on: Downy Brome
Outline: as §1

Lambsquarters = tested on: Lambsquarters
Outline: as §1

Wild Buckwheat = settings: Table II
Outline: as §1

Sugar Beet = settings: Table II
Outline: as §1

Smartweed = tested on: Smartweed
Outline: as §1

Compound: CCOC(=O)CNCP(=O)(O)OC(C)C(=O)OC (stereo not drawn) [Example 28, propanoic acid, 2-[[[[(2-ethoxy-2-oxoethyl)amino]methyl]hydroxyphosphinyl]oxy]-, methyl ester]
- post-emergent herbicidal activity index (Wheat; 2 WAT, 1.12 kg/h): 0 (0-24% control)
- post-emergent herbicidal activity index (Wheat; 4 WAT, 5.6 kg/h): 1 (25-49% control)
- post-emergent herbicidal activity index (Barnyardgrass; Table I, 4 WAT, 5.6 kg/h): 2 (50-74% control)
- post-emergent herbicidal activity index (Barnyardgrass; Table I, 4 WAT, 11.2 kg/h): 2 (50-74% control)
- post-emergent herbicidal activity index (Barnyardgrass; Table II, 2 WAT, 1.12 kg/h): 1 (25-49% control)
- post-emergent herbicidal activity index (Barnyardgrass; Table II, 4 WAT, 5.6 kg/h): 3 (75-99% control)
- post-emergent herbicidal activity index (Velvetleaf; Table I, 4 WAT, 5.6 kg/h): 0 (0-24% control)
- post-emergent herbicidal activity index (Velvetleaf; Table I, 4 WAT, 11.2 kg/h): 2 (50-74% control)
- post-emergent herbicidal activity index (Velvetleaf; Table II, 2 WAT, 1.12 kg/h): 0 (0-24% control)
- post-emergent herbicidal activity index (Velvetleaf; Table II, 4 WAT, 5.6 kg/h): 0 (0-24% control)
- post-emergent herbicidal activity index (Canada Thistle; 5.6 kg/h): 1 (25-49% control)
- post-emergent herbicidal activity index (Canada Thistle; 11.2 kg/h): 1 (25-49% control)
- post-emergent herbicidal activity index (Cocklebur; Table I, 4 WAT, 5.6 kg/h): 1 (25-49% control)
- post-emergent herbicidal activity index (Cocklebur; Table I, 4 WAT, 11.2 kg/h): 2 (50-74% control)
- post-emergent herbicidal activity index (Cocklebur; Table II, 2 WAT, 1.12 kg/h): 0 (0-24% control)
- post-emergent herbicidal activity index (Cocklebur; Table II, 4 WAT, 5.6 kg/h): 2 (50-74% control)
- post-emergent herbicidal activity index (Quackgrass; 5.6 kg/h): 0 (0-24% control)
- post-emergent herbicidal activity index (Quackgrass; 11.2 kg/h): 2 (50-74% control)
- post-emergent herbicidal activity index (Hemp Sesbania; 2 WAT, 1.12 kg/h): 0 (0-24% control)
- post-emergent herbicidal activity index (Hemp Sesbania; 4 WAT, 5.6 kg/h): 3 (75-99% control)
- post-emergent herbicidal activity index (Sorghum; 2 WAT, 1.12 kg/h): 0 (0-24% control)
- post-emergent herbicidal activity index (Sorghum; 4 WAT, 5.6 kg/h): 2 (50-74% control)
- post-emergent herbicidal activity index (Yellow Nutsedge; 5.6 kg/h): 1 (25-49% control)
- post-emergent herbicidal activity index (Yellow Nutsedge; 11.2 kg/h): 3 (75-99% control)
- post-emergent herbicidal activity index (Soybean; 2 WAT, 1.12 kg/h): 1 (25-49% control)
- post-emergent herbicidal activity index (Soybean; 4 WAT, 5.6 kg/h): 1 (25-49% control)
- post-emergent herbicidal activity index (Johnsongrass; 5.6 kg/h): 2 (50-74% control)
- post-emergent herbicidal activity index (Johnsongrass; 11.2 kg/h): 3 (75-99% control)
- post-emergent herbicidal activity index (Morningglory; Table I, 4 WAT, 5.6 kg/h): 1 (25-49% control)
- post-emergent herbicidal activity index (Morningglory; Table I, 4 WAT, 11.2 kg/h): 3 (75-99% control)
- post-emergent herbicidal activity index (Morningglory; Table II, 2 WAT, 1.12 kg/h): 1 (25-49% control)
- post-emergent herbicidal activity index (Morningglory; Table II, 4 WAT, 5.6 kg/h): 2 (50-74% control)
- post-emergent herbicidal activity index (Panicum Spp; 2 WAT, 1.12 kg/h): 0 (0-24% control)
- post-emergent herbicidal activity index (Panicum Spp; 4 WAT, 5.6 kg/h): 2 (50-74% control)
- post-emergent herbicidal activity index (Rice; 2 WAT, 1.12 kg/h): 0 (0-24% control)
- post-emergent herbicidal activity index (Rice; 4 WAT, 5.6 kg/h): 2 (50-74% control)
- post-emergent herbicidal activity index (Crabgrass; 2 WAT, 1.12 kg/h): 2 (50-74% control)
- post-emergent herbicidal activity index (Crabgrass; 4 WAT, 5.6 kg/h): 3 (75-99% control)
- post-emergent herbicidal activity index (Downy Brome; Table I, 4 WAT, 5.6 kg/h): 1 (25-49% control)
- post-emergent herbicidal activity index (Downy Brome; Table I, 4 WAT, 11.2 kg/h): 1 (25-49% control)
- post-emergent herbicidal activity index (Downy Brome; Table II, 2 WAT, 1.12 kg/h): 0 (0-24% control)
- post-emergent herbicidal activity index (Downy Brome; Table II, 4 WAT, 5.6 kg/h): 0 (0-24% control)
- post-emergent herbicidal activity index (Lambsquarters; Table I, 4 WAT, 5.6 kg/h): 0 (0-24% control)
- post-emergent herbicidal activity index (Lambsquarters; Table I, 4 WAT, 11.2 kg/h): 3 (75-99% control)
- post-emergent herbicidal activity index (Lambsquarters; Table II, 2 WAT, 1.12 kg/h): 0 (0-24% control)
- post-emergent herbicidal activity index (Lambsquarters; Table II, 4 WAT, 5.6 kg/h): 1 (25-49% control)
- post-emergent herbicidal activity index (Wild Buckwheat; 2 WAT, 1.12 kg/h): 0 (0-24% control)
- post-emergent herbicidal activity index (Wild Buckwheat; 4 WAT, 5.6 kg/h): 0 (0-24% control)
- post-emergent herbicidal activity index (Sugar Beet; 2 WAT, 1.12 kg/h): 0 (0-24% control)
- post-emergent herbicidal activity index (Sugar Beet; 4 WAT, 5.6 kg/h): 0 (0-24% control)
- post-emergent herbicidal activity index (Smartweed; Table I, 4 WAT, 5.6 kg/h): 0 (0-24% control)
- post-emergent herbicidal activity index (Smartweed; Table I, 4 WAT, 11.2 kg/h): 3 (75-99% control)
- post-emergent herbicidal activity index (Smartweed; Table II, 2 WAT, 1.12 kg/h): 0 (0-24% control)
- post-emergent herbicidal activity index (Smartweed; Table II, 4 WAT, 5.6 kg/h): 1 (25-49% control)
